Experimental data taken from PubChem BioAssay (NCI).
Several values for one entry are separate records, joined by “and”; a condition that tells them apart may be missing. Identical values can stand only once.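 Tested at 5 concentrations; 48 h exposure; 96-well plates; endpoints linearly interpolated, else capped at highest concentration. GI50: concentration for 50% inhibition of growth. TGI: total growth inhibition.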

What was measured:
Assay in all cases: NCI-60 cell line screen, 48 h
[1] = tested on: MOLT-4 leukemia
[2] = tested on: 786-0 renal
[3] = tested on: OVCAR-3 ovarian
[4] = tested on: OVCAR-5 ovarian
[5] = tested on: UO-31 renal
[6] = tested on: IGROV1 ovarian
[7] = tested on: SK-MEL-2 melanoma
[8] = tested on: SK-MEL-5 melanoma
[9] = tested on: T-47D breast
[10] = tested on: DU-145 prostate

| SMILES | TGI [1] [µM] | TGI [2] [µM] | TGI [3] [µM] | TGI [4] | TGI [5] [µM] | TGI [6] [µM] | TGI [7] | TGI [8] [µM] | GI50 [1] [µM] | GI50 [8] [µM] | GI50 [2] [µM] | GI50 [3] [µM] | GI50 [4] [µM] | GI50 [5] [µM] | GI50 [6] [µM] | GI50 [9] [µM] | TGI [9] [µM] | GI50 [10] [µM] | TGI [10] | GI50 [7] [µM] |
| --- | --- | --- | --- | --- | --- | --- | --- | --- | --- | --- | --- | --- | --- | --- | --- | --- | --- | --- | --- | --- |
| CC1CCC(=O)C(C(O)CC2CC(=O)N(c3ccccc3)C(=O)C2)C1 (stereo unspecified) | > 100 | > 100 | > 100 | > 100 µM | > 100 | > 100 | – | – | – | – | – | – | – | – | – | – | – | – | – | – |
| Cc1cc(=O)n(-c2c(C)cccc2Cl)c(/C=C(\O)c2ccncc2)n1 | > 100 | > 100 | > 100 | > 100 µM | > 100 | > 100 | > 100 µM | > 100 | – | – | – | – | – | – | – | – | – | – | – | – |
| CCCCCCCCCC(CCCC(O)CC(=O)O)OC1OC(COC2OC(C)C(OC(C)=O)C(O)C2O)C(O)C(O)C1OC1OC(CO)C(O)C(O)C1OC1OC(C)C(OC(=O)CC(C)C)C(O)C1O (stereo unspecified) | > 35 | > 35 | > 35 | > 35 µM | > 35 | > 35 | – | > 35 | > 35 | > 35 | > 35 | > 35 | > 35 | > 35 | > 35 | > 35 | > 35 | > 35 | > 35 µM | – |
| COc1ccc2c(c1)[n+](=O)c(C(=O)C/C(=N/NC(=O)C[N+](C)(C)C)C(=O)Nc1cccc(C)c1C)c(C)n2O | – | > 100 | > 100 | > 100 µM | > 100 | > 100 | > 100 µM | – | – | – | – | – | – | – | – | – | – | – | – | – |
| CN(NC1OC(CO)C(O)C(O)C1O)c1ccccc1 (stereo unspecified) | > 100 | > 100 | > 100 | > 100 µM | – | > 100 | – | > 100 | – | – | – | – | – | – | – | – | – | – | – | – |
| CN(C)CCn1cnc2ncccc2c1=O | > 100 | > 100 | > 100 | > 100 µM | > 100 | > 100 | > 100 µM | > 100 | – | – | – | – | – | – | – | – | – | – | – | – |
| O=C(O)c1c(Cl)c(Cl)c(Cl)c(Cl)c1C(=O)Nc1ccc2cn[nH]c2c1 | – | > 100 | > 100 | > 100 µM | > 100 | > 100 | > 100 µM | > 100 | – | – | – | – | – | – | – | – | > 100 | – | > 100 µM | – |
| CCCCCCCCCCCCCCCCc1c(C(=O)OC)nc(NN)[nH]c1=O | > 50 | > 50 | > 50 | > 50 µM | > 50 | > 50 | > 50 µM | > 50 | – | – | – | – | – | – | – | – | – | – | – | – |
| CC(=O)Nc1ccc(/C=C2\N=C(c3ccccc3)OC2=O)cc1 | > 100 | > 100 | – | > 100 µM | > 100 | > 31.6 | > 100 µM | > 100 | – | – | – | – | – | – | – | – | – | – | – | – |
| O=C(Nc1cccc(-n2cc(-c3ccncc3)c(-c3ccc(O)c(Cl)c3)n2)c1)c1cc(C(F)(F)F)cc(C(F)(F)F)c1 | > 50 | 18.3 | – | 37.7 µM | > 50 | > 50 | 34 µM | 16.9 | 2.88 | 4.61 | 3.93 | – | 8.33 | 4.15 | 11.2 | 2.28 | 30.8 | 12.6 | > 50 µM | 9.33 |
| O=C(N/C(=C\c1ccccc1Cl)c1nc2ccccc2[nH]1)c1ccccc1 | > 100 | > 100 | > 100 | > 100 µM | 44.8 | > 100 | 51.8 µM | 34.2 | – | – | – | – | – | – | – | – | – | – | – | – |
| CCOC(=O)C(NO)C(Sc1ccccc1)c1ccc(OC)cc1 (stereo unspecified) | > 100 | > 100 | > 100 | > 100 µM | > 100 | > 100 | > 100 µM | > 100 | – | – | – | – | – | – | – | – | – | – | – | – |
| CCOc1ccc(OCC)c([P+](c2ccccc2)(c2ccccc2)c2ccccc2)c1 | – | 15.6 | 2.74 | 6.91 µM | – | 13.3 | – | 1.14 | – | – | – | – | – | – | – | – | – | – | – | – |
| CN(C)C(=O)NC(=S)N(C)C | > 100 | > 100 | – | > 100 µM | > 100 | > 100 | > 100 µM | > 100 | – | – | – | – | – | – | – | – | – | – | – | – |
| CC(=O)OC(C)(C)/C=C/C(=O)[C@](C)(O)[C@H]1[C@H](O)C[C@@]2(C)[C@@H]3CC=C4[C@@H](C=C(O)C(=O)C4(C)C)[C@]3(C)C(=O)C[C@]12C | – | – | – | 6.67 µM and 4.02 µM and 1.09 µM | – | – | 64.9 nM [middle of 4 runs] | – | – | – | 0.0154 | – | – | – | – | – | 1.46 | 0.0514 | 0.0997 µM and 0.689 µM | – |
| CC1=C(C(=O)NCc2ccccc2)C(c2ccccc2C)C(C(=O)NCc2ccccc2)=C(C)N1 | > 100 | 67 | 45.5 | > 95.5 µM | > 93.3 | > 72.3 | 38.5 µM | > 100 | – | – | – | – | – | – | – | – | – | – | – | – |
| OCc1ccc(N2CCc3cc(F)ccc3C2)cc1Cl | 47.4 | 22.7 | 0.288 | – | 18.4 | 0.0941 | 17.8 µM | 20.4 | 15 | 3.95 | 8.64 | 0.0518 | – | 1.7 | 0.017 | – | – | 6.67 | 20.6 µM | 0.375 |
| COc1ccc2nc(-c3ccccc3)cc(Nc3cccc(C(C)=O)c3)c2c1 | > 100 | 9.64 | – | 29.9 µM | > 100 | > 100 | > 100 µM | 24.3 | 7.57 | 8.89 | 2.66 | – | 13.1 | 22.8 | 20.6 | 13.4 | > 100 | 13.2 | 32.3 µM | 38.8 |
| COc1cccc2nc3ccccc3nc12 | > 100 | > 100 | > 100 | > 100 µM | 72.3 | – | – | > 100 | – | – | – | – | – | – | – | – | > 100 | – | > 100 µM | – |
| O=C(Nc1ccccc1C(F)(F)F)c1ccc(NC2=C(Cl)C(=O)N(Cc3ccccc3)C2=O)cc1 | 31.6 | > 100 | 76.9 | > 100 µM | – | 65.9 | > 100 µM | > 100 | 3.14 | 48.7 | 33.7 | 13.1 | 58 | – | 19.3 | > 100 | > 100 | 34.2 | > 100 µM | 40.6 |
